# Tests used:
# [1] = test system: nylon wool-passed cells of spleen cells (responder cell; T cells); test: Inhibitory activity to the mixed lymphocyte culture reaction; type: cell-based, rat (Fischer F344 responder; WKY stimulator); conditions: for IC50: 120 hours, 3H-thymidine incorporation, read-out: IC50 (inhibition of mixed lymphocyte culture reaction); for activity to inhibit the proliferation of the T cells (responder cell) in mixed lymphocyte culture reaction: in vitro, result in words
# [2] = test system: Candida albicans 3147; test: MIC, agar plate dilution method; type: cell-based; conditions: 27° C., 42 hours, nutrient agar containing glucose
# [3] = test system: Gram-positive bacteria; test: Antibacterial activity to Gram-positive bacteria; type: cell-based; conditions: result in words
# Excerpt: (§1) Delaminomycins A, B, C, A2, B2 and C2 according to this invention further have an antibacterial activity against a variety of bacteria. The minimum growth inhibitory concentrations (MIC) (μg/ml) of the novel antibiotics of this invention on various bacteria and fungi as measured by the agar plate dilution method are shown in Table 5a, Table 5b, Table 5c and Table 5d below.
# [4] = test system: Cochliobolus miyabeanus; test: MIC, agar plate dilution method; type: cell-based; conditions: Bipolaris oryzae; 27° C., 42 hours, nutrient agar containing glucose
# Method: as §1
# (§2) Evaluated after culturing at 27° C. for 42 hours in nutrient agar
# (§3) medium containing glucose.
# [5] = test system: Xanthomonas citri; test: MIC, agar plate dilution method; type: cell-based; conditions: 27° C., 42 hours, nutrient agar containing glucose
# Method: as §1, §2, §3
# [6] = test system: Mouse leukemia P388D1; test: Inhibitory activity on proliferation of cancer cells; type: cell-based
# [7] = test system: Trichophyton mentagrophytes F-15 (833); test: MIC, agar plate dilution method; type: cell-based; conditions: 27° C., 42 hours, nutrient agar containing glucose
# [8] = test system: Aspergillus niger F-16; test: MIC, agar plate dilution method; type: cell-based; conditions: F16, 27° C., 42 hours, nutrient agar containing glucose
# [9] = test system: Candida krusei F-5; test: MIC, agar plate dilution method; type: cell-based; conditions: Pichia kudriavzevii, F5; 27° C., 42 hours, nutrient agar containing glucose
# [10] = Solubility; conditions: result in words; for Solubility: various solvents
# [11] = test system: Mouse leukemia L-1210; test: Inhibitory activity on proliferation of cancer cells; type: cell-based; conditions: L1210
# [12] = test system: Pellicularia sasakii; test: MIC, agar plate dilution method; type: cell-based; conditions: 27° C., 42 hours, nutrient agar containing glucose
# [13] = test system: Candida Yu-1200; test: MIC, agar plate dilution method; type: cell-based; conditions: YU1200, 27° C., 42 hours, nutrient agar containing glucose
# [14] = test system: Candida tropicalis F-1; test: MIC, agar plate dilution method; type: cell-based; conditions: F1, 27° C., 42 hours, nutrient agar containing glucose
# [15] = test system: delayed-type hypersensitivity (DTH); test: Suppressive effect on delayed-type hypersensitivity (DTH) in mouse, intraperitoneal; type: in vivo, mouse (CDF1); conditions: intraperitoneal once a day, 0-4th day
# Excerpt: Suppressive effect of delaminomycins on delayed-type hypersensitivity (DTH) in mouse
# CDF1 mice were immunized by intravenously injecting sheep red blood cells (10^5 cells/mouse). On the 4th day after the immunization, sheep red blood cells (10^8 cells/mouse) were subcutaneously injected into the footpad of mice for the elicitation to cause a delayed-type hypersensitivity (DTH). Test compound was intraperitoneally administered to the mice once a day from the 0th day to 4th day after the immunization. On the 5th day after the elicitation the thickness of the mouse footpad was measured to estimate the suppressive effect of the test compound on the DTH response. The suppressive effect of the test compound was evaluated in terms of the inhibition rate (%) as calculated according to the following equation:
# (§4) Inhibition rate (%)=100-(T/C×100)
# wherein T denotes the thickness of the footpad when administering the test compound, but C denotes the thickness of the footpad when administering no test compound.
# [16] = test system: spleen cells (T cells activated by Concanavalin A); test: Inhibitory activity against blastogenesis and proliferation of spleen cells caused by mitogen (Con A); type: cell-based, mouse (CDF1); conditions: for IC50: read-out: IC50 (inhibition of blastogenesis and proliferation of spleen lymphocyte caused by Con A); for activity inhibitory to the reaction of proliferation of mouse spleen cells activated with Concanavalin A: in vitro, result in words
# [17] = test system: Human Lymphoma Jurkat; test: Inhibitory activity on proliferation of cancer cells; type: cell-based
# [18] = test system: Mouse melanoma B-16; test: as above; type: cell-based; conditions: B16
# [19] = Absorption into the digestive tracts on oral administration; conditions: result in words
# [20] = test system: Saccharomyces cerevisiae F-7; test: MIC, agar plate dilution method; type: cell-based; conditions: F7, 27° C., 42 hours, nutrient agar containing glucose
# [21] = test system: Trichophyton asteroides 429; test: MIC, agar plate dilution method; type: cell-based; conditions: 27° C., 42 hours, nutrient agar containing glucose
# [22] = test system: delayed-type hypersensitivity (DTH); test: Suppressive effect on delayed-type hypersensitivity (DTH) in mouse, oral; type: in vivo, mouse (CDF1); conditions: 2.0 mg/mouse, oral once a day, 0~4th day
# Method: CDF1 mice were immunized by intravenously injecting sheep red blood cells (10^5 cells/mouse). On the 4th day after the immunization, sheep red blood cells (10^8 cells/mouse) were subcutaneously injected into the footpad of mice for the elicitation to cause a delayed-type hypersensitivity. Test compound was orally administered to the mice once a day from the 0 th day to the 4 th day after the immunization. On the 5th day after the elicitation, the thickness of the mouse footpad was measured to estimate the suppressive effect of the test compound on DTH. The suppressive effect of the test compound was evaluated in terms of the inhibition rate (%) as calculated according to the following equation:
# as §4
# wherein T denotes the thickness of the footpad when the test compound was administered, but C denotes the thickness of the footpad when no test compounnd was administered.
# [23] = test system: Piricularia oryzae; test: microbe, parasite or virus in culture; type: cell-based; conditions: 42 h
# [24] = test system: Mouse leukemia EL-4; test: Inhibitory activity on proliferation of cancer cells; type: cell-based; conditions: EL4
# [25] = test system: Candida pseudotropicalis F-2; test: MIC, agar plate dilution method; type: cell-based; conditions: Kluyveromyces marxianus, F2; 27° C., 42 hours, nutrient agar containing glucose
# [26] = test system: Cryptococcus neoformans F-10; test: MIC, agar plate dilution method; type: cell-based; conditions: F10, 27° C., 42 hours, nutrient agar containing glucose
# [27] = Acute toxicity (LD50) in ICR mice; conditions: mouse, in vivo, ip, intraperitoneally
smiles,measurement,setting,value
CCC(O)C(C)/C=C/C=C/C1CC2C=CC3CC(C)CC(C)C3C2(C)C(=O)C12C(=O)NC(OC)C2=O (stereo not shown) [Delaminomycin B2],inhibition at 0.05 µg/mL,"[1]; Rattus norvegicus, T-cell, 0.05 μg/ml test compound, read-out: Inhibition rate",0%
same,inhibition at 0.2 µg/mL,"[1]; Rattus norvegicus, T-cell, 0.20 μg/ml test compound, read-out: Inhibition rate",12.3%
same,inhibition at 0.78 µg/mL,"[1]; Rattus norvegicus, T-cell, 0.78 μg/ml test compound, read-out: Inhibition rate",47.6%
same,inhibition at 3.1 µg/mL,"[1]; Rattus norvegicus, T-cell, 3.1 μg/ml test compound, read-out: Inhibition rate",92.7%
same,inhibition at 12.5 µg/mL,"[1]; Rattus norvegicus, T-cell, 12.5 μg/ml test compound, read-out: Inhibition rate",94.1%
same,inhibition at 50 µg/mL,"[1]; Rattus norvegicus, T-cell, 50 μg/ml test compound, read-out: Inhibition rate",96.7%
same,IC50,"[1]; Rattus norvegicus, T-cell",8.6 µg/mL
same,activity to inhibit the proliferation of the T cells (responder cell) in mixed lymphocyte culture reaction,[1],have an activity to inhibit the reaction of proliferation of the T cells
same,MIC,[2],> 100 µg/mL
same,antibacterial activity to Gram-positive bacteria,[3],antibacterial activity to Gram-positive bacteria
same,MIC,[4],> 100 µg/mL
same,MIC,[5],> 100 µg/mL
same,IC50,[6],12.1 µg/mL
same,MIC,[7],> 100 µg/mL
same,MIC,[8],> 100 µg/mL
same,MIC,[9],> 100 µg/mL
same,Solubility,[10],"soluble in methanol, ethyl acetate, chloroform and ethyl ether but slightly soluble or insoluble in n-hexane and water"
same,Solubility in water,[10],barely soluble in water
same,IC50,[11],8 µg/mL
same,MIC,[12],> 50 µg/mL
same,MIC,[13],> 100 µg/mL
same,MIC,[14],> 100 µg/mL
same,Inhibition rate (DTH footpad thickness),[15]; 15.6 μg/mouse,-3.3%
same,Inhibition rate (DTH footpad thickness),[15]; 62.5 μg/mouse,35.4%
same,Inhibition rate (DTH footpad thickness),[15]; 250 μg/mouse,36.2%
same,Inhibition rate (DTH footpad thickness),[15]; 1000 μg/mouse,51.3%
same,IC50,"[16]; Mus musculus, T-cell",0.85 µg/mL
same,inhibition at 0.2 µg/mL,"[16]; Mus musculus, T-cell, 0.20 μg/ml test compound, read-out: Inhibition rate",12.3%
same,inhibition at 0.78 µg/mL,"[16]; Mus musculus, T-cell, 0.78 μg/ml test compound, read-out: Inhibition rate",47.6%
same,inhibition at 3.1 µg/mL,"[16]; Mus musculus, T-cell, 3.1 μg/ml test compound, read-out: Inhibition rate",92.7%
same,inhibition at 12.5 µg/mL,"[16]; Mus musculus, T-cell, 12.5 μg/ml test compound, read-out: Inhibition rate",94.1%
same,inhibition at 50 µg/mL,"[16]; Mus musculus, T-cell, 50 μg/ml test compound, read-out: Inhibition rate",96.7%
same,activity inhibitory to the reaction of proliferation of mouse spleen cells activated with Concanavalin A,[16],exhibit an activity inhibitory to the reaction of proliferation of mouse spleen cells
same,IC50,[17],11.4 µg/mL
same,IC50,[18],17.9 µg/mL
same,absorption into the digestive tracts / oral absorption,[19],hardly absorbed into the digestive tracts
same,MIC,[20],> 100 µg/mL
same,MIC,[21],> 100 µg/mL
same,Inhibition rate (DTH footpad thickness),[22],18.4%
same,MIC,[23],> 100 µg/mL
same,IC50,[24],6.8 µg/mL
same,MIC,[25],> 100 µg/mL
same,MIC,[26],> 100 µg/mL
CCC(O)C(C)/C=C/C=C/C(O)CC1C=CC2CC(C)CC(C)C2C1(C)C(=O)C1C(=O)NC(O)C1=O (stereo not shown) [Delaminomycin A],inhibition at 0.1 µg/mL,"[1]; Rattus norvegicus, T-cell, 0.10 μg/ml test compound, read-out: Inhibition rate",17.6%
same,inhibition at 0.39 µg/mL,"[1]; Rattus norvegicus, T-cell, 0.39 μg/ml test compound, read-out: Inhibition rate",32.8%
same,inhibition at 1.56 µg/mL,"[1]; Rattus norvegicus, T-cell, 1.56 μg/ml test compound, read-out: Inhibition rate",17.5%
same,inhibition at 6.25 µg/mL,"[1]; Rattus norvegicus, T-cell, 6.25 μg/ml test compound, read-out: Inhibition rate",55.3%
same,inhibition at 25 µg/mL,"[1]; Rattus norvegicus, T-cell, 25 μg/ml test compound, read-out: Inhibition rate",95%
same,inhibition at 100 µg/mL,"[1]; Rattus norvegicus, T-cell, 100 μg/ml test compound, read-out: Inhibition rate",96.4%
same,IC50,"[1]; Rattus norvegicus, T-cell",8.6 µg/mL
same,activity to inhibit the proliferation of the T cells (responder cell) in mixed lymphocyte culture reaction,[1],have an activity to inhibit the reaction of proliferation of the T cells
same,MIC,[2],> 100 µg/mL
same,antibacterial activity to Gram-positive bacteria,[3],antibacterial activity to Gram-positive bacteria
same,MIC,[4],> 100 µg/mL
same,MIC,[5],> 100 µg/mL
same,IC50,[6],14 µg/mL
same,MIC,[7],> 100 µg/mL
same,MIC,[8],> 100 µg/mL
same,MIC,[9],> 100 µg/mL
same,Solubility,[10],"soluble in methanol but slightly soluble or insoluble in water, acetone, ethyl ether and n-hexane"
same,Solubility in water,[10],barely soluble in water
same,IC50,[11],> 100 µg/mL
same,MIC,[12],> 100 µg/mL
same,LD50,[27],> 500 mg/kg
same,MIC,[13],> 100 µg/mL
same,MIC,[14],> 100 µg/mL
same,Inhibition rate (DTH footpad thickness),[15]; 15.6 μg/mouse,0.1%
same,Inhibition rate (DTH footpad thickness),[15]; 62.5 μg/mouse,52.8%
same,Inhibition rate (DTH footpad thickness),[15]; 250 μg/mouse,85.3%
same,Inhibition rate (DTH footpad thickness),[15]; 1000 μg/mouse,99.2%
same,IC50,"[16]; Mus musculus, T-cell",17.5 µg/mL
same,inhibition at 1.56 µg/mL,"[16]; Mus musculus, T-cell, 1.56 μg/ml test compound, read-out: Inhibition rate",0%
same,inhibition at 6.25 µg/mL,"[16]; Mus musculus, T-cell, 6.25 μg/ml test compound, read-out: Inhibition rate",31%
same,inhibition at 25 µg/mL,"[16]; Mus musculus, T-cell, 25 μg/ml test compound, read-out: Inhibition rate",57%
same,inhibition at 100 µg/mL,"[16]; Mus musculus, T-cell, 100 μg/ml test compound, read-out: Inhibition rate",88%
same,activity inhibitory to the reaction of proliferation of mouse spleen cells activated with Concanavalin A,[16],exhibit an activity inhibitory to the reaction of proliferation of mouse spleen cells
same,IC50,[17],3.6 µg/mL
same,IC50,[18],21.1 µg/mL
same,absorption into the digestive tracts / oral absorption,[19],hardly absorbed into the digestive tracts
same,MIC,[20],> 100 µg/mL
same,MIC,[21],> 100 µg/mL
same,MIC,[23],> 100 µg/mL
same,IC50,[24],17.9 µg/mL
same,MIC,[25],> 100 µg/mL
same,MIC,[26],> 100 µg/mL

# Source: patent US5527820A, “Antibiotics having immunosuppressive activity, delaminomycins and processes for the production of the same” (priority 1992, dated 1996)
